From PubChem BioAssay (NCI)
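These data come from cells grown in 96-well plates and exposed to compound for 48 hours at five concentrations. Definition used: TGI = concentration required for complete inhibition of growth.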

Experiments:
Assay in all cases: NCI-60 cell line screen, 48 h
[1] = test system: KM12 colon
[2] = test system: SK-OV-3 ovarian
[3] = test system: T-47D breast
[4] = test system: ACHN renal
[5] = test system: HL-60(TB) leukemia
[6] = test system: HCT-15 colon
[7] = test system: M14 melanoma
[8] = test system: SW-620 colon
[9] = test system: OVCAR-4 ovarian
[10] = test system: NCI-H522 lung
[11] = test system: NCI-H226 lung
[12] = test system: RXF 393 renal
[13] = test system: UACC-257 melanoma
[14] = test system: SK-MEL-5 melanoma
[15] = test system: SF-539 CNS
[16] = test system: HCC-2998 colon
[17] = test system: NCI/ADR-RES ovarian

Compound | TGI [1] [µM] | TGI [2] [µM] | TGI [3] [µM] | TGI [4] [µM] | TGI [5] [µM] | TGI [6] [µM] | TGI [7] [µM] | TGI [8] [µM] | TGI [9] [µM] | TGI [10] [µM] | TGI [11] [µM] | TGI [12] [µM] | TGI [13] [µM] | TGI [14] [µM] | TGI [15] [µM] | TGI [16] [µM] | TGI [17] [µM]
O=c1c(-c2ccccc2F)coc2cc(F)ccc12 | > 100 | > 100 | > 100 | > 100 | > 100 | > 100 | > 100 | > 100 | > 100 | > 100 | > 100 | > 100 | > 100 | > 100 | > 100 | – | –
O=C1c2ccccc2C(=O)C1C(c1ccc(F)cc1)C1C(=O)c2ccccc2C1=O | > 100 | > 100 | – | > 100 | > 100 | > 100 | > 100 | > 100 | > 100 | > 100 | > 100 | 71.3 | > 100 | > 100 | > 100 | > 100 | –
Nc1ccc(C23CC4CC(C2)CC(c2ccc(N)cc2)(C4)C3)cc1 | > 100 | – | – | > 100 | 51 | > 100 | 85.5 | 28 | > 100 | – | 44.9 | – | > 100 | 26.9 | 31.1 | 78.6 | > 100
COC(=O)C(C(=O)C(=O)Nc1cccc([N+](=O)[O-])c1)c1nc2ccc([N+](=O)[O-])cc2[nH]c1=O (configuration not stated) | > 100 | > 100 | – | > 100 | > 100 | > 100 | > 100 | > 100 | > 100 | > 100 | > 100 | > 100 | > 100 | > 100 | > 100 | > 100 | –
CC1=NN(c2nc(N)nc(C/C(N)=N/O)n2)C(C)(C)C1 | > 100 | > 100 | – | > 100 | > 100 | > 100 | > 100 | > 100 | > 100 | > 100 | > 100 | – | > 100 | > 100 | > 100 | > 100 | > 100
NC1=NN(c2ccccc2)C(=O)C1C(=O)C(=O)Nc1nccs1 (configuration not stated) | > 100 | > 100 | – | > 100 | > 100 | > 100 | > 100 | > 100 | > 100 | > 100 | > 100 | > 100 | > 100 | > 100 | > 100 | > 100 | –
Cc1ccc(C(=O)/C=C/c2cccc([N+](=O)[O-])c2)cc1 | > 62.1 | > 100 | – | > 100 | > 85.8 | > 64 | > 100 | 43.7 | > 100 | > 100 | > 100 | > 74.8 | > 100 | > 100 | > 100 | > 92 | –
O=c1cc(N=Nc2ccc(Cl)c(Cl)c2)[nH]c(=O)[nH]1 | 6.15 | 30 | – | 2.98 | 0.941 | 3.31 | 4.08 | 3.26 | 8.08 | 2.81 | 33.2 | 3.17 | 6.15 | 10.2 | 8.04 | 6.35 | 3.93
CCN(CC)Cc1ccc(C(=S)Nc2ccc(C)cc2)s1 | 31 | 31.1 | 37.4 | 39 | 27 | 32.3 | 28.9 | 45.3 | 71 | 28.9 | – | – | 24.1 | 26.5 | 37.7 | 25.6 | 51.9
O=C(NC(Cc1cnc[nH]1)C(=O)N1CCCC1)C1CCCC1 (configuration not stated) | > 100 | > 100 | – | > 100 | > 100 | > 100 | > 100 | > 100 | > 100 | > 100 | > 100 | > 100 | – | > 100 | – | > 100 | > 100
CCCCCCCCCCCCCCCCCCNc1nc(=O)n(C2CC(O)C(COP(=O)(O)OCC3OC(n4ccc(N)nc4=O)C(O)C3O)O2)cc1F (configuration not stated) | > 100 | > 100 | > 100 | > 100 | – | 38 | > 100 | > 100 | > 100 | 65.3 | > 100 | > 100 | > 100 | > 100 | > 100 | > 100 | > 100
ON[C@H]1C[C@@H](n2cnc3c(NC4CC4)ncnc32)[C@H](O)[C@@H]1O | > 100 | > 100 | > 100 | > 100 | – | > 100 | > 100 | > 100 | > 100 | > 100 | > 100 | > 100 | > 100 | > 100 | > 100 | > 100 | > 100
CN(C)c1ccc(C2CC(c3ccc4ccccc4c3O)=NN2c2ccc([N+](=O)[O-])cc2[N+](=O)[O-])cc1 (configuration not stated) | > 100 | > 100 | > 100 | > 100 | – | > 100 | > 100 | > 100 | > 100 | > 100 | > 100 | > 100 | > 100 | – | > 100 | > 100 | > 100
O=C(O)[C@H](Cc1ccccc1)NCCN1CCC[C@H]1C(=O)O | > 100 | > 100 | > 100 | – | – | > 100 | > 100 | > 100 | > 100 | > 100 | – | > 100 | – | > 100 | > 100 | – | > 100
Oc1cc(N2CCCC2)ccc1/C=N/N1C(=S)N(c2ccccc2)C(=Nc2ccccc2)C1=Nc1ccccc1 | > 100 | > 100 | > 100 | > 100 | – | > 100 | > 100 | > 100 | – | > 100 | > 100 | 46.1 | > 100 | > 100 | > 100 | > 100 | > 100
